Laboratory results from patent EP0870499A1, “Oral use of (+)-0-Demethyltramadol as analgesic” (Grünenthal GmbH, priority 1997, dated 1998).
Where two headings read alike, the source gives them in different places.

Legend:
[1] = Animal experiments on constipating effect (no method given); type: in vivo; conditions: compared with Morphin
männliche NMRI-Mäuse [2] = assay: Tail-flick test (radiant heat) in the mouse; type: in vivo, Maus; conditions: for ED50: Mus musculus
Text: (§1) Dazu wurden männliche NMRI-Mäuse mit einem Gewicht von 20 bis 25 g oder weibliche Sprague Dawly-Ratten mit einem Gewicht von 120 bis 160 g verwendet. Die Tiere wurden einzeln in Testkäfige gesetzt und die Schwanzbasis einem fokussierten Wärmestrahl einer elektrischen Lampe (Rhema-Analgesiemeter) ausgesetzt. Die Lampenintensität wurde so eingestellt, daß die Zeit vom Einschalten der Lampe bis zum plötzlichen Wegzucken des Schwanzes (Schmerzlatenz) bei unbehandelten Tieren 3 bis 6 Sekunden betrug. Vor Gabe der erfindungsgemäß zu verwendenden Verbindung wurden die Tiere innerhalb von 5 Minuten zweimal getestet und der Mittelwert dieser Messungen als Vortestmittelwert berechnet. Die Schmerzmessung wurde 20, 40 und 60 Minuten nach intravenöser und 30, 60, 90, 120 Minuten nach oraler Gabe durchgeführt. Bei Anstieg der Schmerzlatenz wurde die maximale Expositionszeit auf 12 Sekunden beschränkt und die Zunahme der Latenzzeit von >150 % des Vortestmittelwerts als analgetische Wirkung gewertet. Zur Bestimmung der Dosisabhängigkeit wurden die Verbindungen in 3 bis 5 logarithmisch ansteigenden Dosen, die jeweils die Schwellen- und die maximale Wirkdosis einschlossen, appliziert und aus der Anzahl der Tiere, die analgetische Wirkung zeigten, nach der Methode von Litchfeld und Wilcoxon (J. Pharm. Ex. Ther. 96, 99 bis 113 (1949)) die ED50-Werte bestimmt. Die ED50-Berechnung erfolgte im Wirkmaximum jeweils 20 Minuten nach intravenöser und jeweils 30 Minuten nach oraler Substanzgabe.
(§2) Die Bestimmung der oralen Wirkverfügbarkeit erfolgte aus dem Verhältnis der ED50-Werte bei i.v.- und p.o.-Gabe. Wirkverfügbarkeit =(ED50 i.v.)/(ED50 p.o.) [formula]

[3] = system: weibliche Sprague Dawly-Ratten; assay: Tail-flick test (radiant heat) in the rat; conditions: for ED50: Rattus norvegicus
Text: as §1, §2

männliche NMRI-Mäuse [4] = assay: Phenylquinone-induced writhing test in the mouse; type: in vivo, Maus
Experimental: Die Untersuchung auf analgetische Wirksamkeit wurde im Phenylchinon-induzierten Writhing an der Maus (modifiziert nach I. C. Hendershot, J. Forsaith, J. Pharmacol. Exp. Ther. 125, 237 - 240 (1959)) durchgeführt. Dazu wurden männliche NMRI-Mäuse mit einem Gewicht von 25 bis 30 g verwendet. Gruppen von 10 Tieren pro Substanzdosis erhielten 10 Minuten nach intravenöser Gabe und 30 Minuten nach oraler Gabe der erfindungsgemäß zu verwendenden Verbindungen 0,3 ml/Maus einer 0,02 %-igen wäßrigen Lösung des Phenylchinon (Phenylbenzochinon, Fa. Sigma, Deisenhofen; Herstellung der Lösung unter Zusatz von 5 % Ethanol und Aufbewahrung im Wasserbad bei 45° C) intraperitoneal appliziert. Die Tiere wurden einzeln in Beobachtungskäfige gesetzt und mittels Drucktastenzähler die Anzahl der Schmerz-induzierten Streckbewegungen (sogenannte Writhing-Reaktionen = Durchdrücken des Körpers nach Abstrecken der Hinterextremitäten) 5 bis 20 Minuten nach der Phenylchinongabe ausgezählt. Aus der dosisabhängigen Abnahme der Writhing-Reaktionen im Vergleich zu parallel untersuchten, nur mit Phenylchinon behandelten Kontrollgruppen wurden mittels Regressionsanalyse (Auswerteprogramm Martens, EDV-Serivce, Eckental) der ED50-Wert für die Hemmung der Writhing-Reaktlon berechnet.

[5] = system: weibliche Sprague Dawly-Ratten; conditions: rat, in vivo
Text: as §1, §2

[6] = iv, 20 min, read-out: ED50-Werte Tail-flick, Ratte i.v.
[7] = po, 0.5 h, read-out: ED50-Werte Tail-flick, Ratte p.o.

Compound: CN(C)C[C@H]1CCCC[C@]1(O)c1cccc(O)c1 [(+)-O-Demethyltramadol]
- obstipierende Wirkungen [1]: schwächere obstipierende Wirkungen als Morphin
- ED50 (männliche NMRI-Mäuse [2]; iv, 20 min, read-out: ED50-Werte Tail-flick, Maus i.v.): 1.41 mg/kg
- ED50 (männliche NMRI-Mäuse [2]; po, 0.5 h, read-out: ED50-Werte Tail-flick, Maus p.o.): 3.75 mg/kg
- orale Wirkverfügbarkeit (männliche NMRI-Mäuse [2]; Tail-flick, mouse, (ED50 i.v.)/(ED50 p.o.)): 0,38
- besser oral verfügbar als Morphin (männliche NMRI-Mäuse [2]; mouse (tail-flick and writhing taken together), relative to Morphin): ~5 mal
- ED50 [3, 6]: 1.01 mg/kg
- ED50 [3, 7]: 4.9 mg/kg
- analgetische Wirkung ([3]; Tail-flick test, rat, result in words): ausgeprägte analgetische Wirkung
- orale Wirkverfügbarkeit ([3]; Tail-flick, rat, (ED50 i.v.)/(ED50 p.o.)): 0,21
- besser oral verfügbar als Morphin ([3]; rat, tail-flick, relative to Morphin): ~20 mal
- analgetische Wirkung (männliche NMRI-Mäuse [4]; Writhing test, result in words): ausgeprägte analgetische Wirkung
- orale Wirkverfügbarkeit (männliche NMRI-Mäuse [4]; Writhing, (ED50 i.v.)/(ED50 p.o.)): 0,26
- ED50 (männliche NMRI-Mäuse [4]; iv, 10 min, i.v., phenylquinone i.p. 10 min after dosing, read-out: ED50-Werte Writhing, Maus i.v.): 0.49 mg/kg
- ED50 (männliche NMRI-Mäuse [4]; po, 0.5 h, p.o., phenylquinone i.p. 30 min after dosing, read-out: ED50-Werte Writhing, Maus p.o.): 1.87 mg/kg

Compound: CN1CC[C@]23c4c5ccc(O)c4O[C@H]2[C@@H](O)C=C[C@H]3[C@H]1C5 [Morphin, reference compound]
- orale Wirkverfügbarkeit [5]: 0,01
- ED50 [3, 6]: 0.93 mg/kg
- ED50 [3, 7]: 75 mg/kg
